# Measurements from article PMC3556092, “Cellular responses induced by Cu(II) quinolinonato complexes in human tumor and hepatic cells” (Chemistry Central Journal, 2012).
# Where two headings read alike, the source gives them in different places.
# Columns and labels:
# [1] = tested on: all cancer cell lines (A2780, A2780cis, G361, A549, HeLa, LNCaP, THP-1); assay: Antiproliferative effect of starting compounds on all cancer cell lines; conditions: read-out: IC50, in vitro cytotoxicity of starting compounds on all cancer cell lines, 24 h
# [2] = tested on: TNF-α secretion, LPS-stimulated THP-1 cells; assay: LPS-induced TNF-α secretion in THP-1 macrophages (ELISA); assay type: cell-based, human; conditions: 0.2 μM; for increase of TNF-α secretion, factor in comparison to vehicle: LPS-activated macrophages, 24 h; for TNF-α secretion: 1 h pre-treatment, then LPS 24 h
# Procedure: (§1) To determine the influence of the tested complexes on the TNF-α and IL-1β secretions, the human monocytic leukemia cell line THP-1 was used. The cells were cultivated at 37°C in the RPMI 1640 medium supplemented with 2 mM L-glutamine, 10% fetal bovine serum (FBS), 100 U/mL of penicillin and 100 μg/mL of streptomycin in a humidified atmosphere containing 5% CO2. The stabilized cells (3rd–20th passage) were split into microtitration plates to get a concentration of 100 000 cells/mL and the differentiation to macrophages was induced by a phorbol myristate acetate (PMA) as we described previously.
# (§2) Differentiated macrophages were pretreated for 1 h with 0.2 μM solutions of the tested complexes, prednisone or CuSO4 · 5 H2O dissolved in DMSO (the final DMSO concentration was 0.1%) and with 0.1% DMSO solution itself (the experimental group called vehicle); the given concentrations of the tested compounds lack the cytotoxic effect. The inflammatory response was triggered by adding 1.0 μg/mL lipopolysaccharide (LPS) dissolved in water to pretreated macrophages, control cells were without the LPS treatment. Each experiment was repeated three-times.
# (§3) Macrophages pretreated with the tested compounds for 1 h were incubated with LPS for next 24 h. After this period, the medium was collected and the concentration of TNF-α and IL-1β was measured by Instant ELISA kit (eBioscience, Vienna, Austria) according to the manufacturer’s manual.
# [3] = tested on: IL-1β secretion, LPS-stimulated THP-1 cells; assay: LPS-induced IL-1β secretion in THP-1 macrophages (ELISA); assay type: cell-based, human; conditions: 0.2 μM; for increase of IL-1β secretion, factor: LPS-activated cells, 24 h; for IL-1β secretion: 1 h pre-treatment, then LPS 24 h
# Procedure: as §1, §2, §3
# [4] = tested on: aryl hydrocarbon receptor (AhR) transcriptional activity; assay: AhR gene reporter assay in AZ-AhR cells; assay type: cell-based, human; conditions: 24 h; complexes 10 nM – 5 μM; TCDD 10 pM – 10 μM
# [5] = tested on: HeLa cervix epitheloid carcinoma cells; assay: In vitro cytotoxicity, MTT assay, HeLa; assay type: cell-based, human; conditions: 24 h, read-out: IC50 ± SD, HeLa
# Procedure: Figure S2. […] The cells were plated at 96-well dishes and cultured according manufacturer instructions. The tested compounds were applied to the cells for 24 h in concentrations ranging from 0.01 to 50 µM. The tested compounds were applied to the cells for 24 h. The cytotoxicity was assessed by the MTT test, measurements were performed in triplicate, and each cytotoxicity experiment was repeated three times. The data are expressed as IC50 ± SD (μM).
# [6] = tested on: A2780cis cisplatin-resistant ovarian carcinoma cells; assay: In vitro cytotoxicity, MTT assay, A2780cis; assay type: cell-based, human; conditions: for IC50: 24 h, MTT, read-out: IC50 ± SD, A2780cis; for IC50(A2780cis)/IC50(A2780) ratio (resistance factor): in comparison with cisplatin
# Procedure: Figure S5. […] The cells were plated at 96-well dishes and cultured according manufacturer instructions. The tested compounds were applied to the cells for 24 h in concentrations ranging from 0.01 to 50 µM. The tested compounds were applied to the cells for 24 h. The cytotoxicity was assessed by the MTT test, measurements were performed in triplicate, and each cytotoxicity experiment was repeated three times. The data are expressed as IC50 ± SD (μM).
# [7] = tested on: LNCaP androgen-sensitive prostate adenocarcinoma cells; assay: In vitro cytotoxicity, MTT assay, LNCaP; assay type: cell-based, human; conditions: 24 h, read-out: IC50 ± SD, LNCaP
# Procedure: Figure S6. […] The cells were plated at 96-well dishes and cultured according manufacturer instructions. The tested compounds were applied to the cells for 24 h in concentrations ranging from 0.01 to 50 µM. The tested compounds were applied to the cells for 24 h. The cytotoxicity was assessed by the MTT test, measurements were performed in triplicate, and each cytotoxicity experiment was repeated three times. The data are expressed as IC50 ± SD (μM).
# [8] = tested on: primary human hepatocytes (HH1); assay: Toxicity to primary human hepatocytes; assay type: cell-based; conditions: 24 h, MTT; read-out: IC50 ± SD, HH1 (toxicity to primary human hepatocytes)
# [9] = tested on: G361 malignant melanoma cells; assay: In vitro cytotoxicity, MTT assay, G361; assay type: cell-based, human; conditions: 24 h, read-out: IC50 ± SD, G361
# Procedure: Figure S3. […] The cells were plated at 96-well dishes and cultured according manufacturer instructions. The tested compounds were applied to the cells for 24 h in concentrations ranging from 0.01 to 50 µM. The tested compounds were applied to the cells for 24 h. The cytotoxicity was assessed by the MTT test, measurements were performed in triplicate, and each cytotoxicity experiment was repeated three times. The data are expressed as IC50 ± SD (μM).
# [10] = tested on: THP-1 monocytic leukemia cells; assay: In vitro cytotoxicity, WST-1 test, THP-1; assay type: cell-based, human; conditions: 24 h, WST-1, serum-free medium; read-out: IC50 ± SD, THP-1
# Procedure: Figure S7. […] The cells were plated at 96-well dishes and cultured according manufacturer instructions. The tested compounds were applied to the cells for 24 h in concentrations ranging from 0.01 to 50 µM. The tested compounds were applied to the cells for 24 h. The cytotoxicity was assessed by the MTT test, measurements were performed in triplicate, and each cytotoxicity experiment was repeated three times. The data are expressed as IC50 ± SD (μM).
# [11] = tested on: A549 lung carcinoma cells; assay: In vitro cytotoxicity, MTT assay, A549; assay type: cell-based, human; conditions: 24 h, read-out: IC50 ± SD, A549
# Procedure: Figure S1. […] The cells were plated at 96-well dishes and cultured according manufacturer instructions. The tested compounds were applied to the cells for 24 h in concentrations ranging from 0.01 to 50 µM. The tested compounds were applied to the cells for 24 h. The cytotoxicity was assessed by the MTT test, measurements were performed in triplicate, and each cytotoxicity experiment was repeated three times. The data are expressed as IC50 ± SD (μM).
# [12] = tested on: A2780 ovarian carcinoma cells; assay: In vitro cytotoxicity, MTT assay, A2780; assay type: cell-based, human; conditions: 24 h, read-out: IC50 ± SD, A2780
# Procedure: Figure S4. […] The cells were plated at 96-well dishes and cultured according manufacturer instructions. The tested compounds were applied to the cells for 24 h in concentrations ranging from 0.01 to 50 µM. The tested compounds were applied to the cells for 24 h. The cytotoxicity was assessed by the MTT test, measurements were performed in triplicate, and each cytotoxicity experiment was repeated three times. The data are expressed as IC50 ± SD (μM).
smiles,measurement,setting,value
F[B-](F)(F)F.F[B-](F)(F)F.[Cu+2] [Cu(BF4)2 · H2O],IC50,[1],> 50 µM
O=[N+]([O-])[O-].O=[N+]([O-])[O-].[Cu+2] [Cu(NO3)2 · 3H2O],IC50,[1],> 50 µM
"O.O.O.O.O.O=S(=O)([O-])[O-].[Cu+2] [CuSO4·5H2O, reference compound]","increase of TNF-α secretion, factor in comparison to vehicle",[2],1.4
same,"increase of IL-1β secretion, factor",[3],~1.6
"O=c1c(O)c(-c2ccccc2)[nH]c2ccccc12 [Hqui, 2-phenyl-3-hydroxy-4(1H)-quinolinone]",IC50,[1]; Homo sapiens,> 50 µM
"Clc1cc2c(cc1Cl)Oc1cc(Cl)c(Cl)cc1O2 [TCDD, 2,3,7,8-tetrachlorodibenzo-p-dioxin]",luciferase activity in AZ-AhR cells,[4],"strongly, dose-dependently induced"
"c1ccc(-c2ccnc3c2ccc2c(-c4ccccc4)ccnc23)cc1 [bphen, bathophenanthroline]",IC50,[1],> 50 µM
"O.O=[N+]([O-])[O-].O=c1c([O-])c(-c2ccccc2)[nH]c2ccccc12.[Cu+2].c1cnc2c(c1)ccc1cccnc12 [compound 1, [Cu(qui)(phen)]NO3 · H2O]",IC50,[5],2900 ± 300 nM
same,IC50,[6],830 ± 300 nM
same,"increase of TNF-α secretion, factor in comparison to vehicle",[2],~ 1.25
same,IC50,[7],2400 ± 600 nM
same,IC50,[8],> 10 µM
same,"increase of IL-1β secretion, factor",[3],practically no influence
same,IC50,[9],820 ± 150 nM
same,IC50,[10],2000 ± 100 nM
same,IC50,[11],2500 ± 400 nM
same,IC50,[12],650 ± 280 nM
"F[B-](F)(F)F.O=c1c([O-])c(-c2ccccc2)[nH]c2ccccc12.[Cu+2].c1cnc2c(c1)ccc1cccnc12 [compound 2, [Cu(qui)(phen)]BF4]",IC50,[5],2700 ± 600 nM
same,IC50,[6],1700 ± 600 nM
same,"increase of TNF-α secretion, factor in comparison to vehicle",[2],~ 1.25
same,IC50,[7],1900 ± 600 nM
same,IC50,[8],20.4 ± 1.2 µM
same,"increase of IL-1β secretion, factor",[3],practically no influence
same,IC50,[9],640 ± 200 nM
same,IC50,[10],1700 ± 200 nM
same,IC50,[11],3900 ± 1200 nM
same,IC50,[12],520 ± 100 nM
"Cc1cc2cccnc2c2ncccc12.O.O=[N+]([O-])[O-].O=c1c([O-])c(-c2ccccc2)[nH]c2ccccc12.[Cu+2] [compound 3, [Cu(qui)(mphen)]NO3 · H2O]",IC50,[5],2600 ± 400 nM
same,IC50,[6],780 ± 70 nM
same,"increase of TNF-α secretion, factor in comparison to vehicle",[2],~ 1.25
same,IC50,[7],2100 ± 600 nM
same,IC50,[8],> 10 µM
same,"increase of IL-1β secretion, factor",[3],practically no influence
same,IC50,[9],530 ± 220 nM
same,IC50,[10],1500 ± 300 nM
same,IC50,[11],2500 ± 600 nM
same,IC50,[12],380 ± 30 nM
"Cc1cc2cccnc2c2ncccc12.F[B-](F)(F)F.O.O=c1c([O-])c(-c2ccccc2)[nH]c2ccccc12.[Cu+2] [compound 4, [Cu(qui)(mphen)]BF4 · H2O]",IC50,[5],2400 ± 1000 nM
same,IC50,[6],560 ± 150 nM
same,"increase of TNF-α secretion, factor in comparison to vehicle",[2],1.6
same,IC50,[7],1500 ± 600 nM
same,IC50,[8],9.3 ± 0.6 µM
same,"increase of IL-1β secretion, factor",[3],1.6
same,IC50,[9],530 ± 90 nM
same,IC50,[10],1100 ± 400 nM
same,IC50,[11],2500 ± 600 nM
same,IC50,[12],360 ± 50 nM
"O.O=[N+]([O-])[O-].O=c1c([O-])c(-c2ccccc2)[nH]c2ccccc12.[Cu+2].c1ccc(-c2ccnc3c2ccc2c(-c4ccccc4)ccnc23)cc1 [compound 5, [Cu(qui)(bphen)]NO3 · H2O]",IC50,[5],1000 ± 200 nM
same,IC50,[6],730 ± 80 nM
same,IC50(A2780cis)/IC50(A2780) ratio (resistance factor),[6],practically two times lower
same,TNF-α secretion,[2],2873 ± 238 pg/mL
same,"increase of TNF-α secretion, factor in comparison to vehicle",[2],1.8
same,IC50,[7],740 ± 210 nM
same,IC50,[8],3.6 ± 0.2 µM
same,IL-1β secretion,[3],1177 ± 128 pg/mL
same,"increase of IL-1β secretion, factor",[3],6.9
same,IC50,[9],960 ± 30 nM
same,IC50,[10],570 ± 80 nM
same,IC50,[11],1700 ± 300 nM
same,IC50,[12],660 ± 70 nM
"F[B-](F)(F)F.O=c1c([O-])c(-c2ccccc2)[nH]c2ccccc12.[Cu+2].c1ccc(-c2ccnc3c2ccc2c(-c4ccccc4)ccnc23)cc1 [compound 6, [Cu(qui)(bphen)]BF4]",IC50,[5],1300 ± 400 nM
same,IC50,[6],700 ± 200 nM
same,IC50(A2780cis)/IC50(A2780) ratio (resistance factor),[6],practically two times lower
same,TNF-α secretion,[2],3284 ± 139 pg/mL
same,"increase of TNF-α secretion, factor in comparison to vehicle",[2],2
same,IC50,[7],620 ± 80 nM
same,IC50,[8],5.3 ± 0.3 µM
same,IL-1β secretion,[3],1087 ± 101 pg/mL
same,"increase of IL-1β secretion, factor",[3],6.4
same,IC50,[9],720 ± 60 nM
same,IC50,[10],560 ± 100 nM
same,IC50,[11],1300 ± 400 nM
same,IC50,[12],570 ± 110 nM
"Cc1cc2cccnc2c2ncccc12 [mphen, 5-methyl-1,10-phenanthroline]",IC50,[1]; Homo sapiens,> 50 µM
"c1cnc2c(c1)ccc1cccnc12 [phen, 1,10-phenanthroline]",IC50,[1]; Homo sapiens,> 50 µM
"C[C@]12C=CC(=O)C=C1CC[C@@H]1[C@@H]2C(=O)C[C@@]2(C)[C@H]1CC[C@]2(O)C(=O)CO [prednisone, reference compound]",TNF-α secretion,[2],1173 ± 85 pg/mL
same,IL-1β secretion,[3],118.5 ± 4.8 pg/mL
